Literature values as cited in patent publication US20040062779A1, “Dermatologic composition using ultra-fine/micronized 1-ascorbic acid and other antioxidant ingredients in a stabilized anhydrous vehicle” (priority 2002, published 2004).

Tested on: collagen synthesis
Conditions: in-vitro; Pinnell, Yale J. Biol. Med. 58:554 (1985)

SMILES: O=C1O[C@H]([C@@H](O)CO)C(O)=C1O [ascorbic acid]
- collagen synthesis: stimulates collagen synthesis
